Test results taken from the supplement of paper PMC10949913.

Key:
Conditions in all cases: 48 h
NCI-H295R = assay: area under concentration-response curve (viability) (AUC (a.u.)); higher = less active
Summary of the method: (§1)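 For each of three adrenocortical carcinoma cell lines, 500–1,000 cells/well were placed in 5 µL medium in 1,536-well plates. A 23 nL volume of every library compound was added at 11 concentrations. Following 48 h, a 15-minute room-temperature CellTiter-Glo step preceded luminescence reading, with signals normalised per plate to vehicle and empty-well controls. AC50 and area under the curve were derived by curve fitting, retaining only inhibitory or non-responding curve classes.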

CU-ACC2 [1] = assay: as above
Summary of the method: as §1

CU-ACC2 [2] = assay: AC50 viability; higher = less potent
Summary of the method: as §1

CU-ACC1 = assay: area under concentration-response curve (viability) (AUC (a.u.)); higher = less active
Summary of the method: as §1

| SMILES | area under concentration-response curve (NCI-H295R) | area under concentration-response curve (CU-ACC2 [1]) | AC50 viability (CU-ACC2 [2]) [µM] | area under concentration-response curve (CU-ACC1) |
| --- | --- | --- | --- | --- |
| C[C@]1(O)CC(C1)C2=NC(=C3[N]2C=CN=C3N)C4=CC5=C(C=C4)C=CC(=N5)C6=CC=CC=C6 (configuration not stated) | 373 | 411 | 18.6 |  |
| CC(C)c1cccc(C(C)C)c1O | 415 | 400 | 14.8 | 362 |
| CCN(CC)C(=S)SSC(=S)N(CC)CC | 472 | 465 | 14.8 | 366 |
| c1cc(CN2CCCNCCNCCCNCC2)ccc1CN1CCCNCCNCCCNCC1 | 294 | 337 | 0.0934 | 336 |
| CC(C)(N)c1ccc(-c2nc3ccccc3nc2-c2ccccc2)cc1 | 354 | 297 | 0.372 | 336 |
| CCOc1cc(N2CCC(O)CC2)ccc1Nc1ncc2c(n1)N(C)c1ccccc1C(=O)N2C | 479 | 525 | 20.9 | 450 |
| O=C(NCc1ccc([S+](=O)([O-])c2cccc(C(F)(F)F)c2)cc1)c1cnc2[nH]ncc2c1 | 407 | 362 | 0.0186 | 347 |
| CONC(=O)c1ccccc1Nc1cc(Nc2cc(C)nn2C(C)C)ncc1Cl |  | 459 | 16.6 | 455 |
| Cn1ncc(NC(=O)c2nc(-c3c(F)cccc3F)sc2N)c1N1CC[C@@H](N)[C@H](F)CC1 | 516 | 500 | 18.6 | 525 |
| CNCc1ccc(-c2[nH]c3cc(F)cc4c3c2CCNC4=O)cc1 |  | 495 | 26.3 | 416 |
| C=CC[C@@H]1/C=C(\C)C[C@H](C)C[C@H](OC)[C@H]2O[C@@](O)(C(=O)C(=O)N3CCCC[C@H]3C(=O)O[C@H](/C(C)=C/[C@@H]3CC[C@@H](O)[C@H](OC)C3)[C@H](C)[C@@H](O)CC1=O)[C@H](C)C[C@@H]2OC |  | 390 | 18.6 | 383 |
| [2H]C([2H])([2H])C(O)([C@@H](C)/C=C/[C@@H](C)[C@H]1CC[C@H]2/C(=C/C=C3C[C@@H](O)C[C@H](O)C3)CCC[C@]12C)C([2H])([2H])[2H] |  | 309 | 0.235 | 347 |
| CCC1=C2CN3C(=O)\C4=C(/C=C3/C2=NC5=CC=C(O)C=C15)[C@@](O)(CC)C(=O)OC4 | 524 | 447 | 0.468 | 401 |
| CC(C)(C)C(=O)Oc1ccc([S+](=O)([O-])Nc2ccccc2C(=O)NCC(=O)O)cc1 | 348 | 313 | 0.105 | 318 |
| O=C(NCCCNc1nc(Nc2cccc(CN3CCOCC3)c2)ncc1C1CC1)C1CCC1 | 220 | 452 | 33.2 |  |
| CO[C@@H]1C(N(C)C(=O)c2ccccc2)C[C@H]2O[C@]1(C)n1c3ccccc3c3c4c(c5c6ccccc6n2c5c31)C(=O)NC4=O (some centres not stated) |  | 286 | 0.186 | 362 |
| COc1cc(OC)c(NC(=O)Nc2cc(C)on2)cc1Cl | 432 | 484 | 23.5 | 408 |

| SMILES | area under concentration-response curve (NCI-H295R) | area under concentration-response curve (CU-ACC2 [1]) | AC50 viability (CU-ACC2 [2]) [µM] | area under concentration-response curve (CU-ACC1) |
| --- | --- | --- | --- | --- |
| OCc1ccc(-c2ccc(-c3ccc(CO)s3)o2)s1 |  | 532 | 37.2 | 507 |
| CC1(C)C(N(O)C(=O)Nc2ccc(Cl)cc2)N(c2ccc(Cl)cc2)C(=O)N1CC(=O)N/N=C/C=C/c1ccc([N+](=O)[O-])o1 (configuration not stated) |  | 561 | 23.5 | 511 |
| CCN(CC)CCOc1ccc(/C(=C(\Cl)c2ccccc2)c2ccccc2)cc1 | 131 | 203 | 10.5 |  |
| COc1c(C)cnc(Cn2cnc3c(Cl)nc(N)nc32)c1C |  | 378 | 0.661 | 361 |
| CNC(=O)c1cccc2cc(Oc3ccnc4cc(OCC5(N)CC5)c(OC)cc34)ccc12 |  | 305 | 1.66 | 356 |
| CCN1C(=O)\C(=C/C2=CN=C(NCCC3CCN(C)CC3)N=C12)C4=CC=C(C=C4Cl)C5=CN=CC(=N5)C |  | 624 | 2.63 | 645 |
| Cc1c(NC(=O)OC[C@@H]2COCCN2)cn2ncnc(Nc3ccc4c(cnn4Cc4cccc(F)c4)c3)c12 |  | 544 | 18.6 | 393 |
| C[C@@H](N)c1ccc(C(=O)Nc2ccnc3[nH]ccc23)cc1 |  | 297 | 2.63 | 349 |
| Cc1[nH]c(/C=C2\C(=O)Nc3ccc(F)cc32)c(C)c1C(=O)NCCN1CCCC1 |  | 525 | 14.4 | 522 |
| CCOC(=O)c1ccnc(CNCC(=O)N(CC)CCN(C)C)c1 |  | 339 | 0.661 | 338 |
| C=C(C)[C@@H]1CCC(C)=C[C@H]1c1c(O)cc(CCCCC)cc1O |  | 489 | 18.6 | 467 |
| C\C1=C(\[C@@H](OC2=C1C=CC(=C2)O)C3=CC=C(OCCN4CCCCC4)C=C3)C5=CC=C(O)C=C5 |  | 333 | 0.295 | 296 |
| CC(C)[C@H](CO)Nc1nc(Nc2cccc(Cl)c2)c2ncn(C(C)C)c2n1 |  | 591 | 29.5 | 551 |
| Cc1cnc(C(=O)NCCc2ccc([S+](=O)([O-])NC(=O)NC3CCCCC3)cc2)cn1 |  | 404 | 33.2 | 355 |
| COc1cc(Nc2cnc(C#N)c(O[C@H](C)CN(C)C)n2)ncc1-c1cnn(C)c1 |  | 399 | 10.5 | 312 |
| O=C(Nc1ccc([S+](=O)([O-])N2CCOCC2)cc1)c1cc(Cl)ccc1N[S+](=O)([O-])c1ccc(Cl)s1 |  | 530 | 18.6 | 481 |
| C=CC(=O)Nc1cccc(Nc2nc(Nc3ccc(OCCOC)cc3)ncc2F)c1 | 545 | 597 | 20.9 |  |
